Measurements reported in patent publication US20120065261A1, “Creatine compositions for skin treatment” (Avicena Group, Inc., priority 2006, published 2012).

Tests used:
[1] = Stability of aqueous solutions at pH 4.0 (HPLC); assay type: physicochemical; details: 10 mg/mL, pH 4.0, 5 days at room temperature
Method: Aqueous solutions of 10 mg/mL of creatine ascorbate, creatine monohydrate, creatine pyruvate, ascorbic acid and magnesium ascorbyl phosphate were prepared in Type I water and brought to pH 4.0 (±0.1) by adding acetic acid (creatine ascorbate, creatine monohydrate and magnesium ascorbyl phosphate) or sodium hydroxide (ascorbic acid and creatine pyruvate). The solutions were incubated for 5 days at room temperature and were subsequently lyophilized, redissolved within 60 minutes of analysis and analyzed by isocratic HPLC on a C18 RF column (250 mm×4.6 mm) at 1 mL/min.

human dermal fibroblasts = experiment: Mitochondrial metabolism in human dermal fibroblast cultures (MTT assay); assay type: cell-based; details: for inhibition of mitochondrial metabolism / stimulatory effect on mitochondrial metabolism / stimulation of mitochondrial metabolism: freshly prepared; for inhibition of mitochondrial metabolism: 100 μg/mL and 1000 μg/mL; for stimulatory effect on mitochondrial metabolism: concentrations tested; for effect on mitochondrial metabolism: preincubated solutions (pH 4.0, five days)
Method: The purpose of this assay was to determine the effect creatine ascorbate, creatine monohydrate and creatine pyruvate on the mitochondrial metabolism on the entire cell culture using an MTT assay. The MTT assay measures the activity of succinate dehydrogenase, a key enzyme in the respiratory electron transport chain in mitochondria.
Two sets of aqueous solutions of 10 mg/mL of creatine ascorbate, creatine monohydrate, creatine pyruvate, ascorbic acid and magnesium ascorbyl phosphate were prepared in Type I water. The first set of solutions were prepared immediately before being added to cell cultures. The second set of solutions were preincubated at pH 4.0 (±0.1) five days, then the solutions were lyophilized and the substrates were redissolved in water at 10 mg/mL prior to being added to the cell cultures. Normal human dermal fibroblasts (passage 5, lot number 7F1254, Cambrex, Walkersville, Md.) were seeded in a 96-well plate in phenol red-free DMEM medium (high glucose) containing 2.5% fetal calf serum at 2500 cells per well and test materials, both freshly prepared solutions and preincubated solutions, were added 24 hours later. At the end of the incubation period MTT (3-(4,5-dimethylthiazol-2-yl)-2,5-diphenyltetrazolium bromide) was added to the cell cultures and incubation was pursued for an additional three hours. Culture media were then discarded, the cells were rinsed and the intracellular MTT reduction product, formazan, was solubilized in ethanol/acetic acid. The colorimetric signal proportional to the mitochondrial activity in the cell cultures was measured with a microplate spectrophotometer at 570 nm. For references describing this method, see Berridge et al. “Arch. Biochem. Biophys.” 303:474-482 (1993) and Murimaki et al. “Biochem. Pharmacol.” 44:2191-2197 (1992).

[2] = test system: p53 expression in human dermal fibroblasts; experiment: p53 expression induced by UVB irradiation of human dermal fibroblasts (sandwich ELISA); assay type: cell-based; details: 50 μg/ml; UVB 0.15 mW/cm^2; 4 hours accumulation
Method: Confluent human dermal fibroblasts were trypsinized, counted and plated at 750,000 cells/well in eight 6-well plates in phenol-free DMEM medium (4 g/L glucose) supplemented with 5% serum. After three hours, creatine ascorbate, creatine monohydrate, creatine pyruvate, ascorbic acid and magnesium ascorbyl phosphate in a concentration of 50 μg/ml were added and cells were incubated overnight at 37° C. in 5% CO2 atmosphere. After 24 hours, p53 protein was induced by UVB irradiation at 0.15 mW/cm^2 for […] and was allowed to accumulate for 4 hours. The cells were then lyzed and total p53 was quantified by sandwich ELISA. The p53 values were standardized with regard to total protein values determined with Bradford reagent. For a description of this assay, see Carlisle et al. “Toxicological Sciences” 55:60 (2000).

[3] = test system: Clostridium collagenase IV; experiment: Metalloproteinase (collagenase) activity, Enzcheck kit with quenched fluorescent gelatin; assay type: biochemical; details: after incubation of 60 minutes
Method: Metalloproteinase (collagenase) activity was measured with Enzcheck kit from Molecular Probes using quenched fluorescent gelatin and Clostridium collagenase IV, a generic collagenase. Creatine ascorbate, creatine monohydrate, creatine pyruvate, ascorbic acid and magnesium ascorbyl phosphate, in concentrations of 1000 μg/mL, 100 μg/mL and 10 μg/mL, were incubated in the presence of a collagenase substrate (quenched fluorescing-linked gelatin) and in the presence of the proteolytic enzyme. Phenantroline, a potent metalloproteinase inhibitor was used as a positive control. The kinetics of the release of the digested, fluorescent gelatin were measured at excitation/emission wavelengths of 485/530 nm.

[4] = test system: type I collagen levels in human dermal fibroblasts; experiment: Type I collagen in human dermal fibroblast conditioned medium (sandwich ELISA); assay type: cell-based; details: for levels of type I collagen: freshly prepared solutions
Method: Normal human dermal fibroblasts (passage 5, lot number 7F1245, Cambrix, Walkersville, Md.) were seeded in a 96-well plate in DMEM medium (high glucose) containing 5% fetal calf serum and grown to late subconfluent stage. Two sets of aqueous solutions of 10 mg/mL of creatine ascorbate, creatine monohydrate, creatine pyruvate, ascorbic acid and magnesium ascorbyl phosphate were prepared in Type I water. The first set of solutions were prepared immediately before being added to cell cultures. The second set of solutions were preincubated at pH 4.0 (±0.1) five days, then the solutions were lyophilized and the substrates were redissolved in water at 10 mg/mL prior to being added to the cell cultures. Both the freshly prepared solutions and the solutions of preincubated test materials were administered to the cells, and cell culture conditioned media was harvested 5 days after the start of the experiment and tested for type I collagen by sandwich ELISA using affinity purified antibodies, followed by streptavidin-avidin-HRP conjugate and ABTS, according to standard ELISA protocol. The colorimetric signal proportional to collagen content was measured with a microplate spectrophotometer at 405 nm. For references describing this method, see Dobek et al. “J. Dermatol. Sci.” 8:18 (1994) and Zhao et al. “Phytomedicine” 12:132 (2005).

[5] = test system: UV-induced lipid peroxidation; experiment: UV-induced lipid peroxidation of lecithin dispersions (TBARS); assay type: biochemical; details: 500 μg/mL; UVB irradiation 3 hours
Method: Test materials were added to dispersions of lecithin (a natural phospholipid) and irradiated with UVB light (11,000 μW/cm^2 at the source). After 3 hours, trichloroacetic acid and thiobarbituric acids were added and the concentration of Thiobarbituric Acid Reactive Substance (TBARS), such as malondialdehyde, was measured spectroscopically (malonaldehyde is a breakdown product generated spontaneously from oxidized lipid) at 550 nm using an UV microplate reader. For references describing this method, see Pelle et al. “Arch. Biochem. Biophys.” 283:234-40 (1990); Wang et al. “J. Ethnopharmacol.” 82:169-175 (2002).

Mushroom tyrosinase = experiment: Tyrosinase activity in vitro (L-Dopa substrate); assay type: biochemical; details: for inhibition of tyrosinase activity compared to the control: 5 μg/mL
Method: Tyrosinase activity was measured according to the method described by Pomerantz “Biochem. Biophys. Res. Commun.” 16(2):188-194 (1964). Mushroom tyrosinase stock solution was prepared in PBS at 2000 U/mL and stored at […] in 1 mL aliquots. Final concentration was 5 U/well (25 U/mL). Creatine ascorbate, creatine monohydrate, creatine pyruvate, ascorbic acid and magnesium ascorbyl phosphate were dissolved in PBS and further dilutions were made with Type I water. L-Dopa stock solution was 20 mM. The tyrosinase substrate was prepared in PBS. The assays were performed in a 96-well microtiter plates and read at 490 nm.

[6] = highest concentration, 1000 μg/mL

O=C1O[C@H]([C@@H](O)CO)C(O)=C1O [ascorbic acid, reference compound]
loss of the absorbance peak / decrease of absorption [1]: 28%
inhibition of mitochondrial metabolism (human dermal fibroblasts): inhibited mitochondrial metabolism
stimulatory effect on mitochondrial metabolism (human dermal fibroblasts): did not have a stimulatory effect
inhibitory effect on mitochondrial metabolism (human dermal fibroblasts; preincubated, concentration not given): 24%
effect on p53 expression induced by UVB irradiation [2]: no effect
inhibition of collagenase activity compared to the control [3]: 39%

CN(CC(=O)O)C(=N)N.O [creatine monohydrate]
stimulation of mitochondrial metabolism (human dermal fibroblasts; 10 μg/mL): 0%
stimulation of mitochondrial metabolism (human dermal fibroblasts; 100 μg/mL): 15%
stimulation of mitochondrial metabolism (human dermal fibroblasts; 1000 μg/mL): 28%
effect on mitochondrial metabolism (human dermal fibroblasts): stimulated mitochondrial metabolism, although not to the extent of the freshly prepared creatine monohydrate
effect on p53 expression induced by UVB irradiation [2]: significantly inhibited
levels of type I collagen ([4]; 10 μg/mL and 100 μg/mL): moderately increased
levels of type I collagen [4, 6]: better than creatine ascorbate and ascorbic acid
inhibition of collagenase activity compared to the control [3]: Neither creatine monohydrate nor magnesium ascorbyl phosphate showed any inhibitory activity

O=C1O[C@H]([C@@H](O)CO)C([O-])=C1OP(=O)([O-])[O-].O=C1O[C@H]([C@@H](O)CO)C([O-])=C1OP(=O)([O-])[O-].[Mg+2].[Mg+2].[Mg+2] [magnesium ascorbyl phosphate, reference compound]
stimulatory effect on mitochondrial metabolism (human dermal fibroblasts): greatest stimulatory activity
effect on mitochondrial metabolism (human dermal fibroblasts): exhibited stimulation
effect on p53 expression induced by UVB irradiation [2]: significantly inhibited
levels of type I collagen ([4]; all concentrations, 5 days): large increase
stimulation of type I collagen ([4]; results of both assays (fresh and preincubated)): strong stimulation
inhibition of collagenase activity compared to the control [3]: Neither creatine monohydrate nor magnesium ascorbyl phosphate showed any inhibitory activity

creatine ascorbate
inhibition of lipid peroxidation [5]: 21%
degradation in aqueous solution [1]: minor to no degradation
inhibition of mitochondrial metabolism (human dermal fibroblasts): inhibited mitochondrial metabolism
stimulatory effect on mitochondrial metabolism (human dermal fibroblasts): did not have a stimulatory effect
effect on mitochondrial metabolism (human dermal fibroblasts): superior to preincubated ascorbic acid
tyrosinase inhibitory activity compared with reference substances (Mushroom tyrosinase): lower than the activity of ascorbic acid and was similar to the activity of magnesium ascorbyl phosphate
inhibition of tyrosinase activity compared to the control (Mushroom tyrosinase): 26%
inhibitory effect on the tyrosinase activity (Mushroom tyrosinase; 500 μg/mL and 50 μg/mL): significant inhibitory effect
effect on p53 expression induced by UVB irradiation [2]: significantly inhibited
stimulation of type I collagen compared with reference substances ([4]; 100 μg/mL): comparable to that of magnesium ascorbyl phosphate and better than ascorbic acid
stimulation of type I collagen levels above the non-treated control (water) ([4]; dose-dependent, conclusion of both assays (fresh and preincubated)): about 50%
levels of type I collagen ([4]; 10 μg/mL and 100 μg/mL): significantly increased
levels of type I collagen [4, 6]: significantly lower
inhibition of collagenase activity compared to the control [3]: 11.5%

creatine pyruvate
loss of the absorbance peak / decrease of absorption [1]: 42%
inhibition of mitochondrial metabolism (human dermal fibroblasts): 17%
effect on mitochondrial metabolism (human dermal fibroblasts): not to be inhibitory
inhibition of tyrosinase activity compared to the control (Mushroom tyrosinase): no inhibition
inhibition of tyrosinase activity (Mushroom tyrosinase; 50 μg/mL): 10%
inhibition of tyrosinase activity (Mushroom tyrosinase; 500 μg/mL): 100%
effect on p53 expression induced by UVB irradiation [2]: significantly inhibited
levels of type I collagen ([4]; 10 μg/mL and 100 μg/mL): moderately increased
levels of type I collagen [4, 6]: better than creatine ascorbate and ascorbic acid
inhibition of collagenase activity compared to the control [3]: 27%
